Counter-ions that a name gives are not always drawn.
target: T1, PDE4B (human recombinant) (Homo sapiens, UniProt Q07343); experiment: Inhibition of PDE4B activity (FP and/or SPA assay); type: biochemical; settings: generally FP assay; one reading or average of n readings; read-out: PDE4B pIC50 (generally in FP assay) (±about 0.5) (converted)
T1 construct: made in house; host or cells: Saccharomyces cerevisiae strain GL62 (PDE-deficient yeast)
Excerpt: Human recombinant PDE4B, in particular the 2B splice variant thereof (HSPDE4B2B), is disclosed in WO 94/20079 and also M. M. McLaughlin et al., “A low Km, rolipram-sensitive, cAMP-specific phosphodiesterase from human brain: cloning and expression of cDNA, biochemical characterisation of recombinant protein, and tissue distribution of mRNA”, J. Biol. Chem., 1993, 268, 6470-6476. For example, in Example 1 of WO 94/20079, human recombinant PDE4B is described as being expressed in the PDE-deficient yeast Saccharomyces cerevisiae strain GL62, e.g. after induction by addition of 150 uM CuSO4, and 100,000×g supernatant fractions of yeast cell lysates are described for use in the harvesting of PDE4B enzyme.
The ability of compounds to inhibit catalytic activity at PDE4B or 4D (human recombinant), PDE3 (from bovine aorta), PDE5 (human recombinant) or PDE6 (from bovine retina) can optionally be determined by Scintillation Proximity Assay (SPA) in a 96-well format.
Test compounds (as a solution in DMSO, suitably about 2 microlitre (ul) volume of DMSO solution) are preincubated at ambient temperature (room temperature, e.g. 19-23° C.) in Wallac Isoplates (code 1450-514) with PDE enzyme in 50 mM Tris-HCl buffer pH 7.5, 8.3 mM MgCl2, 1.7 mM EGTA, 0.05% (w/v) bovine serum albumin for 10-30 minutes (usually 30 minutes). The enzyme concentration is adjusted so that no more than 20% hydrolysis of the substrate defined below occurs in control wells without compound, during the incubation. For the PDE3, PDE4B and PDE4D assays, [5′,8-^3H]Adenosine 3′,5′-cyclic phosphate (Amersham Pharmacia Biotech, code TRK.559; or Amersham Biosciences UK Ltd, Pollards Wood, Chalfont St Giles, Buckinghamshire HP8 4SP, UK) is added to give 0.05uCi per well and about 10 nM final concentration. For the PDE5 and PDE6 assays, [8^−3H]Guanosine 3′,5′-cyclic phosphate (Amersham Pharmacia Biotech, code TRK.392) is added to give 0.05uCi per well and about 36 nM final concentration. Plates containing assay mixture, suitably approx. 100 ul volume of assay mixture, are mixed on an orbital shaker for 5 minutes and incubated at ambient temperature for 1 hour. Phosphodiesterase SPA beads (Amersham Pharmacia Biotech, code RPNQ 0150) are added (about 1 mg per well) to terminate the assay. Plates are sealed and shaken and allowed to stand at ambient temperature for 35 minutes to 1 hour (suitably 35 minutes) to allow the beads to settle. Bound radioactive product is measured using a WALLAC TRILUX 1450 Microbeta scintillation counter. For inhibition curves, 10 concentrations (e.g. 1.5 nM-30 uM) of each compound are assayed. Curves are analysed using ActivityBase and XLfit (ID Business Solutions Limited, 2 Ocean Court, Surrey Research Park, Guildford, Surrey GU2 7QB, United Kingdom) Results are expressed as pIC50 values.
The ability of compounds to inhibit catalytic activity at PDE4B (human recombinant) or PDE4D (human recombinant) can optionally be determined by IMAP Fluorescence Polarisation (FP) assay (IMAP Explorer kit, available from Molecular Devices Corporation, Sunnydale, Calif., USA; Molecular Devices code: R8062) in 384-well format.
The IMAP FP assay is able to measure PDE activity in an homogenous, non-radioactive assay format. The FP assay uses the ability of immobilised trivalent metal cations, coated onto nanoparticles (tiny beads), to bind the phosphate group of Fl-AMP that is produced on the hydrolysis of fluorescein-labelled (Fl) cyclic adenosine mono-phosphate (Fl-cAMP) to the non-cyclic Fl-AMP form. […] Binding of Fl-AMP product to the beads (coated with the immobilised trivalent cations) slows the rotation of the bound Fl-AMP and leads to an increase in the fluorescence polarisation ratio of parallel to perpendicular light. Inhibition of the PDE reduces/inhibits this signal increase. […]

T1 sequence (Q07343 1-564 isoform Q07343-2): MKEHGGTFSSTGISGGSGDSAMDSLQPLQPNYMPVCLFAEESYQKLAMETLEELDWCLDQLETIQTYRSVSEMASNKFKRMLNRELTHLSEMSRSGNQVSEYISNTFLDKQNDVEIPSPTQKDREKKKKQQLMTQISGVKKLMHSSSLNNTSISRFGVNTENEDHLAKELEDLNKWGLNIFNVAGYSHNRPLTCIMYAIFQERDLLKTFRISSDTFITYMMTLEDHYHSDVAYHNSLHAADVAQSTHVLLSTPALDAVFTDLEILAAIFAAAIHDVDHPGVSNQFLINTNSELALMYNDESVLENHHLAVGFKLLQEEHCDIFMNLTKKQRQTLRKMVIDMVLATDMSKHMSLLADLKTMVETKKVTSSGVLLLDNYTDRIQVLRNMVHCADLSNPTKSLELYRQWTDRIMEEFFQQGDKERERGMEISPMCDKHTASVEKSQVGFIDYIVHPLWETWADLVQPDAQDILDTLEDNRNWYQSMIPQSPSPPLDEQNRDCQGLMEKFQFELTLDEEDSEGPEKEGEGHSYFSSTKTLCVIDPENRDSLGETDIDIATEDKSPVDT

| IC50 [nM] | Structure (SMILES) |
| --- | --- |
| ~0.0501 | CCc1nc2c(cnn2CC)c(NC2CCOCC2)c1CNC(=O)c1ccc(NC(=O)CCCCCCCN(C)CCO)cc1 [Example 1A1, N-{[1,6-Diethyl-4-(tetrahydro-2H-pyran-4-ylamino)-1H-pyrazolo[3,4-b]pyridin-5-yl]methyl}-4-({8-[(2-hydroxyethyl)(methyl)amino]octanoyl}amino)benzamide dihydrochloride] |
| ~0.0631 | CCc1nc2c(cnn2CC)c(NC2CCOCC2)c1CNC(=O)c1ccc(NC(=O)CCCCCCCN(C)CCO)cc1 [Example 1B, N-{[1,6-diethyl-4-(tetrahydro-2H-pyran-4-ylamino)-1H-pyrazolo[3,4-b]pyridin-5-yl]methyl}-4-({8-[(2-hydroxyethyl)(methyl)amino]octanoyl}amino)benzamide] |
| ~0.0398 | CCc1nc2c(cnn2CC)c(NC2CCOCC2)c1CNC(=O)c1ccc(CCCCOCCCCN(C)CCO)cc1 [Example 19, formate salt of N-{[1,6-diethyl-4-(tetrahydro-2H-pyran-4-ylamino)-1H-pyrazolo[3,4-b]pyridin-5-yl]methyl}-4-[4-({4-[(2-hydroxyethyl)(methyl)amino]butyl}oxy)butyl]benzamide] |
| ~0.1 | CCc1nc2c(cnn2CC)c(NC2CCN(C(N)=O)CC2)c1CNC(=O)c1ccc(CCCCOCCCCN2CCOCC2)cc1 [Example 23A, 4-({1,6-diethyl-5-[({[4-(4-{[4-(4-morpholinyl)butyl]oxy}butyl)phenyl]carbonyl}amino)methyl]-1H-pyrazolo[3,4-b]pyridin-4-yl}amino)-1-piperidinecarboxamide] |
| ~0.251 | CCn1ncc2c(NC3CCOCC3)c(CNC(=O)c3ccc(NC(=O)CCCCCCCN(C)CCO)cc3)cnc21 [Example 26, Formate salt of N-{[1-ethyl-4-(tetrahydro-2H-pyran-4-ylamino)-1H-pyrazolo[3,4-b]pyridin-5-yl]methyl}-4-({8-[(2-hydroxyethyl)(methyl)amino]octanoyl}amino)benzamide] |

same assay, conditions: one reading or average of n readings

| Structure (SMILES) | PDE4B pIC50 (generally in FP assay) (±about 0.5) |
| --- | --- |
| CCc1nc2c(cnn2CC)c(NC2CCN(C(N)=O)CC2)c1CNC(=O)c1ccc(NC(=O)CCCCCCCN(C)CCO)cc1.O=C(O)C(F)(F)F [Example 9, 4-({1,6-diethyl-5-[({[4-({8-[(2-hydroxyethyl)(methyl)amino]octanoyl}amino)phenyl]carbonyl}amino)methyl]-1H-pyrazolo[3,4-b]pyridin-4-yl}amino)-1-piperidinecarboxamide trifluoroacetate (salt)] | about 10.3 (n = 1) |

— patent US20090325952A1, “PYRAZOLO[3,4-B]PYRIDINE COMPOUNDS, AND THEIR USE AS PDE4 INHIBITORS” (Glaxo Group Limited, priority 2006, published 2009)
